Read-outs that look alike come from different tables or passages of the source. Bridge positions count the residues as written; N and C are the ends. Peptide text beside a SMILES is read from it.
Tests used:
[1] = system: BALB/c mice with CLP polymicrobial sepsis; assay: Cecal-ligation/puncture (CLP) induced sepsis; format: in vivo, mouse
Procedure: Polymicrobial peritonitis was induced in 6–8 week old BALB/c mice by CLP as described, [21]. Briefly, laparotomy was performed on anesthetized animals and the cecum was ligated below the ileocecal valve. Both walls of the cecum were punctured twice with an 18-gauge needle, and the surgical wound closed with 3–0 nylon suture. All animals fully recovered within 60 min. […] Animal health was evaluated daily for 28 days. As above, mice were euthanized when they became moribund.

in vitro = conditions: human, EDTA plasma
BALB/c mice = assay: Mouse exposure study, repeated subcutaneous injection; format: in vivo
Procedure: Twenty four h after the fourth injection, mice were euthanized with CO2, blood was collected by cardiac puncture, and tissues were harvested and fixed in 10% buffered formalin. Histopathologic examination was performed on sections of heart, lung, liver, spleen, kidney, and injection site skin and subcutaneous tissue. A basic metabolic panel (UC Davis-William R. Pritchard Veterinary Medical Teaching Hospital) was performed on serum samples obtained by cardiac puncture at the time of euthanasia.

[2] = ref D. Tran & M.E. Selsted, unpublished data, cited from earlier work
[3] = mouse whole blood, data not shown
DA rats = system: DA rats; design: method as in Schaal et. al, manuscript in preparation; conditions: repetitive (8–15 injections) s.c. challenge, after 8 weeks; ref Schaal et. al, manuscript in preparation; cited from earlier work
host cells = conditions: cited from earlier work
Text: The only detected tissue effect as ...

[4] = human whole blood, data not shown
[5] = LPS neutralization assay (Limulus amoebocyte lysate); format: biochemical, Escherichia coli; conditions: LAL assay, 0–10 µg/ml, N = 4
Procedure: To each sample 25 µl of Limulus amoebocyte lysate (LAL; Lonza) was added and incubated for 10 min at 37°C after which 100 µl of LAL substrate was added and incubated for 6 min at 37°C. Reactions were quenched with 50 µl of 25% HOAc and read spectrophotometrically at 405 nm.

[6] = system: human EDTA-anti-coagulated blood diluted 1∶10; assay: TNF release assay in stimulated diluted whole blood (ELISA); format: cell-based
[7] = system: BALB/c mice challenged with E. coli K12; conditions: 8×10^8 CFU E. coli K12 i.p., single s.c. dose 5 mg/kg at challenge, n = 13
E. coli = assay: Killing of E. coli during pre-incubation with peptide; format: cell-based, Escherichia coli; conditions: 100 CFU/ml E. coli, 10 µg/ml peptide in RPMI
[8] = system: SARS-coronavirus (SARS-CoV); conditions: cited from earlier work
THP-1 monocytic cells = assay: TNF release assay in LPS-stimulated THP-1 monocytes (ELISA); format: cell-based, human; conditions: THP-1 in RPMI +5% human EDTA-plasma, 1 ng/ml K12 LPS, 4 h, N = 2
Procedure: THP-1 monocytic cells (ATCC, Manassas, VA) were grown and maintained in RPMI-1640 medium containing 10% fetal bovine serum and penicillin/streptomycin. Cells were harvested by centrifugation, washed with RPMI-1640 medium and suspended at 5×10^5 cells/ml in fresh medium containing 5% human EDTA plasma.
Peptides (RTDs 1–5, human neutrophil α-defensins) were aliquoted into wells of pyrogen-free 12- or 24-well plates wherein final peptide concentrations were 0–10 µg/ml. Wells were inoculated with 1×10^5 CFU/ml S. aureus or 100 CFU/ml E. coli, or 1–3 ng/ml of E. coli K12 LPS. Samples (5–10 µl) containing peptide or bacteria/LPS were placed on opposite sides of the plate well. Mixing commenced with the addition of 0.5 to 2.0 ml of 1∶10 diluted blood, PBLs (5×10^5/ml), or THP-1 cells (2–5×10^5 cells/ml). Plates were incubated at 37°C in 5% CO2 for 4 h with gentle mixing. […] Incubation mixtures were centrifuged at 200× g for 10 min at 22°C and supernatants were clarified by centrifugation at 23,000× g for 15 min at 4°C. Supernatant TNF was quantified by sandwich ELISA (OptEIA II; BD Biosciences; Hu TNF-α, Invitrogen) per suppliers’ directions, using a SpectraMax Plate Reader.

[9] = system: leukocytes / target cells; assay: Cytotoxicity by trypan blue staining in the in vitro incubations; format: cell-based, human; conditions: TNF release incubations in blood, 4 h
[10] = rat whole blood, data not shown
[11] = system: human peripheral blood leukocytes (PBL); assay: Cytokine/chemokine release by TLR agonist-stimulated peripheral blood leukocytes (Milliplex); format: cell-based
Procedure: EDTA-anticoagulated blood was obtained from healthy adult volunteers as approved by the Institutional Review Board at USC (protocol # HS-09-00280). Peripheral blood leukocytes (PBL) were harvested from 10–15 ml whole blood after centrifugation at 200× g. Cells were washed twice with 3–5 ml of RPMI, counted with a hemocytometer, and suspended to a cell density of 5×10^5 cells/ml in RPMI +5% human EDTA-plasma. PBLs were stimulated for 4 h with either 0.9 µg/ml ssRNA40, 30 ng/ml S. typhimurium flagellin, 3.3×10^7 CFU/ml heat-killed L. monocytogenes (HKLM), 3 ng/ml E. coli K12 LPS, or 100 CFU/ml of the clinical E. coli isolate. Cytokines/chemokines were quantified using a Milliplex MAP kit on a BioRad Bioplex HTF Luminex reader at the Beckman Center for Immune Monitoring at USC-Norris Cancer Center.

[12] = PBL stimulated 4 h with 0.9 µg/ml ssRNA40 (TLR8 agonist), simultaneous addition of 10 µg/ml peptide

CC[C@H](C)[C@@H]1NC(=O)[C@@H]2CSSC[C@H](NC(=O)[C@H](CCCNC(=N)N)NC(=O)[C@@H]3CSSC[C@H](NC1=O)C(=O)N[C@@H]([C@@H](C)O)C(=O)N[C@@H](CCCNC(=N)N)C(=O)NCC(=O)N[C@@H](Cc1ccccc1)C(=O)N3)C(=O)N[C@@H](CC(C)C)C(=O)N[C@H]1CSSC[C@H](NC(=O)[C@H](C(C)C)NC(=O)CNC(=O)[C@H](CCCNC(=N)N)NC(=O)[C@H](CCCNC(=N)N)NC1=O)C(=O)N[C@@H](CCCNC(=N)N)C(=O)N2 [RTD-1] (cyclo(GFCRCLCRRGVCRCICTR); disulfide 3-16, 5-14, 7-12)
long term survival ([1]; single i.v. dose administered 4 h after CLP surgery, 28 days): 10 of 11 | recovery / survival ([1]; single i.v. dose delayed until 24 h post CLP, through end of trial): 4 of 5 | remaining at 72 h, 50 µg/ml (in vitro): 93% | incidence of focal, non-erythematous swelling at injection site (BALB/c mice; 40 mg/kg s.c. daily, at day 4): 2/4 | incidence of focal, non-erythematous swelling at injection site (BALB/c mice; 160 mg/kg s.c. daily, by day 3): 4/4 | histopathology of lungs, kidneys, heart, liver, spleen (BALB/c mice; after 4 day dosing regimen, all peptide levels tested): no abnormalities | serum chemistries (BALB/c mice; daily s.c. injections for 4 days, 2.5–160 mg/kg, basic metabolic panel): indistinguishable from saline-treated controls | acute toxicity (BALB/c mice; daily s.c. injections for 4 days, up to 160 mg/kg (highest dose tested), groups of four): no acute toxicity was observed | lobular panniculitis with fat necrosis at injection site (BALB/c mice; multiple injections of 2.5 or 10 mg/kg): absent | stability to heating ([2]; 100°C, 30 min): completely stable | stability to extended storage at pH 2.0 ([2]; pH 2.0): completely stable | time highly stable in whole blood [3]: at least 24 h | anti-RTD-1 antibody (DA rats): no anti-RTD-1 antibody | toxicity to host cells in vitro (host cells): non-toxic | time highly stable in whole blood [4]: at least 24 h | effectiveness in neutralizing E. coli LPS relative to polymyxin B (fold less effective) ([5]; 10 min 37°C): 50–100 fold | neutralization of E. coli LPS [5]: ineffective in neutralizing | blockade of TNF release ([6]; E. coli pre-treated with 10 µg/ml peptide for 0–120 min before addition of blood, 4 h, all time-points): complete blockade | hierarchy of anti-TNF potencies ([6]; E. coli-stimulated blood, 4 h, N = 2): RTD-5>2>1>4>3 | effect of peptide alone on TNF release ([6]; blood incubated 4 h with peptide alone, no stimulus): no effect | survival [7]: significantly improved survival | time to killing of E. coli (absence of viable bacteria) (E. coli): ≤ 30 min | virus neutralization in vitro [8]: did not neutralize the virus | hierarchy of anti-TNF potencies (THP-1 monocytic cells): RTD-5>2>1>4>3 | cytotoxicity (trypan blue staining of leukocytes) [9]: no cytotoxicity was detected | time highly stable in whole blood [10]: at least 24 h | effect on induced levels of chemokines CXCL8 (IL-8), CCL2 (MCP-1), CCL3 (MIP-1α), CCL4 (MIP-1β) ([11]; HKLM-stimulated PBL, 10 µg/ml peptide, 4 h): no suppression | suppression of supernatant IL-1β level [11, 12]: 95% | suppression of supernatant IL-8 level [11, 12]: 68% | effect on VEGF-A ([11]; RTD-1 treatment of PBLs): reproducible elevation | effect of peptide alone on cytokine/chemokine release ([11]; unstimulated leukocytes, 10 µg/ml peptide alone, exception VEGF and to a lesser degree CCL2 (MCP-1)): little effect
